Results reported in patent US11363815B2, “Trifluoroethyl thioether (sulfoxide) substituted benzene compound and use thereof” (SHENYANG UNIVERSITY OF CHEMICAL TECHNOLOGY, priority 2018, dated 2022).

Tested on: Tetranychus cinnabarinus eggs
Assay: Determination of activity of Tetranychus cinnabarinus eggs (greenhouse spray test)
Assay type: in vivo
Conditions: 120 h, concentration of the chemical solution 5 mg/L, spray treatment of eggs on marrow bean leaf, examined after 5 days, read-out: hatching inhibition rate for Tetranychus cinnabarinus eggs
Protocol: The acaricidal activity in a greenhouse was determined by using the compound of the present invention. The determination method is as follows: According to the solubility of the compound to be tested, the compound was dissolved with acetone or dimethyl sulfoxide, and prepared into 50 ml of solution to be tested in a concentration needed with 0.1% Tween 80 solution, in which the content of acetone or dimethyl sulfoxide comprises not more than […]. A potted marrow bean seedling with two true leaves was taken, one true leaf was removed, then 10 female adult mites of healthy Tetranychus cinnabarinus were inoculated to the leaf, the adult mites were removed after 24 hours, spray treatment was performed after examination of the number of eggs. Every treatment was performed for 3 times. After 5 days, when all the blank control eggs were incubated, the number of the eggs which were not incubated in each treatment was examined to calculate the incubation inhibition rate.

SMILES | inhibition at 5 µg/mL
Cc1cc(F)c(N2Cc3ccccc3C2=O)cc1SCC(F)(F)F [compound 1] | ≥ 90%
Cc1cc(F)c(N2Cc3ccccc3C2=O)cc1[S+]([O-])CC(F)(F)F (centres unmarked) [compound 2] | ≥ 90%
